According to ChEMBL document CHEMBL3124782, “MHY884, a newly synthesized tyrosinase inhibitor, suppresses UVB-induced activation of NF-κB signaling pathway through the downregulation of oxidative stress” (Bioorg Med Chem Lett, 2014):
Activity calls are given as the source filed them. The rule behind the calls is not given here.

What was measured:
Mus musculus [1] = assay: (§1) Antioxidant activity in UVB-irradiated melanin-possessing hairless mouse assessed as inhibition of nuclear translocation of p-p65 NF-kappaB Ser 536 in skin homogenate at 2 to 10 uM treated topically to dorsal skin once a day for 21 days concomitantly irradiated with UV-B on alternate days from day 2 post-treatment by Western blot method; type: functional, organism-based
Mus musculus [2] = assay: as §1, with “NF-kappaB-mediated COX-2 expression” for “nuclear translocation of p-p65 NF-kappaB Ser 536”; type: functional, organism-based
Mus musculus [3] = assay: as §1, with “NF-kappaB-mediated iNOS expression” for “nuclear translocation of p-p65 NF-kappaB Ser 536”; type: functional, organism-based
Mus musculus [4] = assay: as §1, with “AKT-mediated IKKalphabeta phosphorylation at Ser176/180 residues” for “nuclear translocation of p-p65 NF-kappaB Ser 536”; type: functional, organism-based
Mus musculus [5] = assay: as §1, with “AKT phosphorylation at Thr 308 and Ser473 residues” for “nuclear translocation of p-p65 NF-kappaB Ser 536”; type: functional, organism-based
Mus musculus [6] = assay: as §1, with “effect on GSH/GSSG ratio” for “inhibition of nuclear translocation of p-p65 NF-kappaB Ser 536”, “o-phthalaldehyde assay” for “Western blot method”; type: functional, organism-based
Mus musculus [7] = assay: Antioxidant activity in melanin-possessing hairless mouse assessed as inhibition of UVB-induced peroxynitrite generation in skin homogenate compound treated topically to dorsal skin once a day for 21 days concomitantly irradiated with UV-B on alternate days from day 2 post-treatment by DHR 123 assay; type: functional, organism-based
Mus musculus [8] = assay: Antioxidant activity in melanin-possessing hairless mouse assessed as inhibition of UVB-induced ROS generation in skin homogenate compound treated topically to dorsal skin once a day for 21 days concomitantly irradiated with UV-B on alternate days from day 2 post-treatment by DCFDA assay; type: functional, organism-based
B16-F10 [9] = assay: Inhibition of oxidative stress in mouse B16F10 cells assessed as SIN-1-induced peroxynitrite generation pretreated for 2 hrs followed by washout before SIN-1 challenge; type: functional, cell-based
B16-F10 [10] = assay: Inhibition of oxidative stress in mouse B16F10 cells assessed as SIN-1-induced ROS generation pretreated for 2 hrs followed by washout before SIN-1 challenge; type: functional, cell-based
[11] = Antioxidant activity assessed as ROS scavenging activity at 1 to 10 uM by DCFDA assay; type: functional
[12] = Antioxidant activity assessed as peroxynitrite scavenging activity at 1 to 10 uM by DHR 123 assay; type: functional
Mus musculus [13] = assay: as §1, with “p65” for “nuclear translocation of p-p65”, “phosphorylation at Ser536 residue” for “Ser 536”; type: functional, organism-based

Row | Compound | inhibition (Mus musculus [1]) | inhibition (Mus musculus [2]) | inhibition (Mus musculus [3]) | inhibition (Mus musculus [4]) | inhibition (Mus musculus [5]) | Activity (Mus musculus [6]) | inhibition (Mus musculus [7]) | inhibition (Mus musculus [8]) | inhibition (B16-F10 [9]) | inhibition (B16-F10 [10]) | Activity [11] | Activity [12] | inhibition (Mus musculus [13])
1 | COc1cc(C2Nc3cc(Cl)ccc3S2)cc(OC)c1O (stereo not given) | Active | Active | Active | Active | Active | inactive | Dose-dependent effect | Dose-dependent effect | Dose-dependent effect | Dose-dependent effect | Active | Active | Active
2 | CC(C)(S)[C@@H](N)C(=O)O |  |  |  |  |  |  |  |  |  |  |  | Active | 
3 | Cc1c(C)c2c(c(C)c1O)CCC(C)(C(=O)O)O2 (stereo not given) |  |  |  |  |  |  |  |  |  |  | Active |  | 
